{"source": "patent US6004932A", "about": "“Use of glucagon as a metabolic conditioner for dairy cows and other ruminants” (Iowa State University Research Foundation, Inc., priority 1998, dated 1999)", "assay_type_in_all_cases": "in vivo", "key": {"dairy cows": {"tested_on": "dairy cows", "test": "Toxicity observation during glucagon treatment of dairy cows", "details": "treated dairy cows, 10 mg/day", "experimental": "On d 14 postpartum, the SC and the STG groups began the FRBD (feed restriction and 1,3-butanediol in the diet) protocol in which feed intake was restricted to 80% of the average intake for the previous 2 days and 1,3-butanediol (BD) was added, a precursor of ketone bodies, to the ration in increasing quantities either until the cow became ketotic or until 1.4 kg of BD was offered daily. The STG group at 21 days postpartum began to receive a continuous intravenous infusion of 10 mg of glucagon daily, which continued for 14 days. The SC group were infused with saline as a vehicle control. The NC and the NTG groups continued to receive feed for ad libitum intake, but the NTG group received an infusion of glucagon from d 21 to 35 postpartum and the NC group was infused with vehicle control. (The NTG group gave information on how normal early lactation cows respond to 14-day intravenous infusions of glucagon)."}, "[1]": {"tested_on": "multiparous Holstein cows", "test": "Effect of glucagon on liver glycogen content of dairy cows, liver biopsies", "details": "NTG and STG groups, FIG. 3", "experimental": "(§1) Glucagon purified from bovine pancreas, was weighed, dissolved in 0.09% NaCl adjusted to pH 10.5, and diluted so that the amount to be infused daily was contained in 480 ml to allow for an infusion rate of 20 ml/h. All glassware that was to be in contact with glucagon was rinsed with a solution of 1.0% bovine serum albumin to prevent adherence of glucagon to glass surfaces.\nThe four groups of 10 multiparous Holstein cows per group that were used for the main trial were normal controls (NC), normal cows treated with glucagon (NTG), susceptible controls that should be inducible into ketosis (SC), and susceptible cows treated with glucagon (STG). The two groups of 10 normal cows were selected from cows that had body condition scores at calving that ranged from 3.2 to 3.8. The two groups of 10 susceptible cows were selected from obese cows that have been fed at 2 times NRC requirements for energy during late lactation and throughout the dry period so they calved at a body condition score of 4.0 to 4.5. […]\n(§2) A liver biopsy was taken at 7 days postpartum and analyzed immediately for triacylglycerols and glycogen. […]\n(§3) On d 14 postpartum, the SC and the STG groups began the FRBD (feed restriction and 1,3-butanediol in the diet) protocol in which feed intake was restricted to 80% of the average intake for the previous 2 days and 1,3-butanediol (BD) was added, a precursor of ketone bodies, to the ration in increasing quantities either until the cow became ketotic or until 1.4 kg of BD was offered daily. […]\nGlycogen and triacylglycerol concentrations of liver samples were determined as described by Mills, S. E. et al., \"Characterization of metabolic changes during a protocol for inducing lactation ketosis in dairy cows\", J. Dairy Sci. 69:352 (1986a). Total lipid content was measured as described by Drackley, J. K. et al., \"Metabolic changes in blood and liver of dairy cows during feed restriction or administration of 1,3-butanediol\", J. Dairy Sci., 74:4254 (1991). […]"}, "[2]": {"tested_on": "multiparous Holstein cows", "test": "Effect of glucagon on liver triacylglycerol (lipid) levels of dairy cows, liver biopsies", "experimental": "as §1\nThe four groups of 10 multiparous Holstein cows per group that were used for the main trial were normal controls (NC), normal cows treated with glucagon (NTG), susceptible controls that should be inducible into ketosis (SC), and susceptible cows treated with glucagon (STG). […]\nas §2, §3\nGlycogen and triacylglycerol concentrations of liver samples were determined as described by Mills, S. E. et al., \"Characterization of metabolic changes during a protocol for inducing lactation ketosis in dairy cows\", J. Dairy Sci. 69:352 (1986a). […]"}, "[3]": {"tested_on": "early lactation dairy cows", "test": "Preliminary data on glucagon doses above 10 mg/day in early lactation dairy cows", "details": "doses of greater than 10 mg/day; inventors' preliminary data"}}, "data": [{"substance": "glucagon", "values": [{"measurement": "glucagon toxicity in the animals", "setting": "dairy cows", "value": "without any indication of glucagon toxicity"}, {"measurement": "liver glycogen content after d 38, before the 42-d biopsy", "setting": "[1]; after termination of infusion", "value": "dropped dramatically"}, {"measurement": "liver glycogen concentration from the 20-d to the 23-d biopsy sample", "setting": "[1]; after infusions began at d 21", "value": "decreased"}, {"measurement": "liver glycogen concentration from d 23 up to the d 38 biopsy", "setting": "[1]; d 38 is 3 d after infusions stopped", "value": "increased at a parallel rate"}, {"measurement": "liver triacylglycerol, covariate adjusted to average d-7 value, normal cows", "setting": "[2]; NTG vs NC, FIG. 2", "value": "only a slight difference between the NC and the NTG groups"}, {"measurement": "change in concentration of lipid in livers of normal cows", "setting": "[2]; normal cows (NTG vs NC), 10 mg/d intravenous infusion d 21-35 postpartum, FIG. 1", "value": "no major decrease"}, {"measurement": "incidence of fatty liver at high dose", "setting": "[3]", "value": "may actually increase the incidence of fatty liver"}]}]}
